We go through 42 compounds from patent US9718790B2, “Triazine derivative and pharmaceutical composition having an analgesic activity comprising the same” (SHIONOGI & CO., LTD., priority 2010, dated 2017).

Broadly, the IC50 is the concentration that inhibits the measured activity by half.

Structures are written as SMILES.

The target of the first test is human P2X3 receptor (Homo sapiens (Human), UniProt P56373). As to the kind of experiment: Evaluation of human P2X3 receptor inhibitory activity (Fluo-3 calcium fluorescence, FDSS 3000, ATP stimulation).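 Note: stimulus was 50 nM ATP with fluorescence followed for 3 min, and the response per well was peak post-ATP fluorescence divided by the reading at measurement start.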 It is filed as cell-based. The following applies: C6BU-1 cells stably expressing human P2X3 receptor.
human P2X3 receptor, sequence (P56373 whole entry): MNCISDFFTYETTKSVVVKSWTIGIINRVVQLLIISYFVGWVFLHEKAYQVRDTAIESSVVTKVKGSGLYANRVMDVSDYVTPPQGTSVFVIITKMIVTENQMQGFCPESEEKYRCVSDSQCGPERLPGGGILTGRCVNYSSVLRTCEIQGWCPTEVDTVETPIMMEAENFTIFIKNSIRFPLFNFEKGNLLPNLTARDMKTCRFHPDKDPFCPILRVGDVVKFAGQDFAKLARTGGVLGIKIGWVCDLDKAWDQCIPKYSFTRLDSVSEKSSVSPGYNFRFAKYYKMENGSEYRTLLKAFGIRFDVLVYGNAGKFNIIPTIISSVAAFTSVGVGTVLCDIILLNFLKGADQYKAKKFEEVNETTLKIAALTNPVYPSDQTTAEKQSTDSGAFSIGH
As to `Cc1[nH]c2ccc(/N=c3\[nH]c(=O)n(CC(CO)CO)c(=O)n3Cc3ccc(Cl)cc3)cc2c1C` [Compound I-1935], the IC50 was 9 nM. Regarding `COC(=O)[C@@H](C)[C@@H](C)n1c(=O)[nH]/c(=N\c2cccc(C(F)(F)F)c2)n(Cc2ccc(Cl)cc2)c1=O` [Compound I-1317], the IC50 stood at 105 nM. As to `CCn1c(=O)[nH]/c(=N\c2ccc(Oc3cccc4ocnc34)c(Cl)c2)n(Cc2ccc(Cl)cc2)c1=O` [Compound I-2195], the IC50 came out at 14 nM. With `Cc1ccc(Cn2c(=O)n([C@H](C)[C@H](C)C(=O)O)c(=O)[nH]/c2=N\c2ccc(OC(C)C)c(F)c2)cc1` [Compound I-1338], the IC50 is 36 nM. Consider `CC[C@@H](C)Oc1ccc(/N=c2\[nH]c(=O)n(C[C@H](C)C(=O)O)c(=O)n2Cc2ccc(Cl)cc2)cc1` [Compound I-0754], for which the IC50 was 16 nM.

In the case of `O=C(O)CCn1c(=O)[nH]/c(=N\c2ccc(Oc3ccnc(O)c3)cc2)n(Cc2ccc(Cl)cc2)c1=O` [Compound I-1441], the IC50 was 9 nM.

As for `CCC(Cn1c(=O)[nH]/c(=N\c2ccc(OC(C)C)c(C)c2)n(Cc2ccc(Cl)cc2)c1=O)C(=O)OC(C)(C)C` (stereo not drawn) [Compound I-0701], the IC50 is 35 nM. For `CC(C)Oc1ccc(/N=c2\[nH]c(=O)n(Cc3ccc[nH]c3=O)c(=O)n2Cc2ccc(Cl)cc2)cc1F` [Compound I-0685], the IC50 was 8 nM. Consider `CCn1c(=O)[nH]/c(=N\c2ccc(Oc3ccnc(C(=O)O)c3)cc2)n(CC2CCC3(CC2)CC3)c1=O` [Compound I-2177], for which the IC50 turned out to be 14 nM. Same read-out and setting: the same measure for `COC(=O)[C@@H](C)Cn1c(=O)[nH]/c(=N\c2ccc3c(c2)CCC3)n(Cc2ccc(Cl)cc2)c1=O` [Compound I-0769]: 207 nM.

Take `Cc1cc(/N=c2\[nH]c(=O)n(C[C@H](C)C(=O)NCC(F)(F)F)c(=O)n2Cc2ccc(Cl)cc2)ccc1OC(C)C` [Compound I-0726]: the concentration for half-maximal inhibition (IC50) amounted to 16 nM. On to `Cc1ccc(Cn2c(=O)n(C[C@H](C)C(=O)O)c(=O)[nH]/c2=N\c2cnc(OC3CCCC3)c(Cl)c2)cc1` [Compound I-1477], for which the IC50 turned out to be 68 nM. In the case of `NC(=O)CCn1c(=O)[nH]/c(=N\c2ccc(OCC3CC3)cc2)n(Cc2ccc(Cl)cc2)c1=O` [Compound I-1914], the half-inhibitory concentration (IC50) was 46 nM. Still for that read-out and setting: the same measure for `COC(=O)Cn1c(=O)[nH]/c(=N\c2ccc(OC3CCC3)cc2)n(Cc2ccc(Cl)cc2)c1=O` [Compound I-1939]: 30 nM; for `CC(C)Oc1ccc(/N=c2\[nH]c(OCC(N)=O)nc(=O)n2Cc2ccc(Cl)cc2)cc1F` [Compound I-0587]: 299 nM; for `COc1ccc(CN2C(=O)CC[C@H]2Cn2c(=O)[nH]/c(=N\c3ccc(OC(C)C)c(F)c3)n(Cc3ccc(Cl)cc3)c2=O)cc1` [Compound I-0684]: 30 nM. As to `Cc1cc(/N=c2\[nH]c(=O)n([C@@H](C)[C@@H](C)C(=O)O)c(=O)n2Cc2ccc(Cl)cc2)ccc1OC1CCC1` [Compound I-1409], the IC50 stood at 17 nM. Same read-out and setting: the same measure for `COC(=O)c1cc(Oc2ccc(/N=c3\[nH]c(=O)n(CCOC4CCCCO4)c(=O)n3Cc3ccc(Cl)cc3)cc2)no1` (stereo not drawn) [Compound I-2113]: 1 nM; for `COC(=O)[C@H](C)[C@H](C)n1c(=O)[nH]/c(=N\c2ccc(N3CCCCC3)cc2)n(Cc2ccc(Cl)cc2)c1=O` [Compound I-1380]: 26 nM.

The test is the same for the next values; noted with them: C6BU-1 cells stably expressing human P2X3 receptor, Fluo-3 fluorescence, FDSS 3000.
Regarding `CCc1nc2ccc(/N=c3\[nH]c(=O)n(CC(=O)O)c(=O)n3Cc3ccc(Cl)cc3)cc2s1` [Compound I-1798], the 50% inhibitory concentration (IC50) is 150 nM. Turning to `C/C=C\c1ccc(Cn2c(=O)n(C[C@H](C)C(=O)O)c(=O)[nH]/c2=N\c2ccc(OC(C)C)cc2)cc1` [Compound I-1150], the IC50 was 551 nM. Take `COc1cc(/N=c2\[nH]c(=O)n(C[C@H](C)C(=O)O)c(=O)n2Cc2ccc(C)cc2)ccc1OC(C)C` [Compound I-1135]: the IC50 is 18 nM. Take `Cc1ccc(Cn2c(=O)n(C[C@H](C)C(=O)O)c(=O)[nH]/c2=N\c2ccc(OC(F)F)cc2)cc1` [Compound I-1161]: the IC50 turned out to be 148 nM.

Regarding `C[C@@H](C(=O)O)[C@H](C)n1c(=O)[nH]/c(=N\c2ccc3[nH]ncc3c2)n(Cc2ccc(Cl)cc2)c1=O` [Compound I-1743], the IC50 was 861 nM. Consider `CCc1oc2ccc(/N=c3\[nH]c(=O)n(CC(=O)O)c(=O)n3Cc3ccc(Cl)cc3)cc2c1C` [Compound I-1609], for which the IC50 came to 187 nM. Still for that read-out and setting: the same measure for `Cc1cc(Oc2ccc(/N=c3\[nH]c(=O)n(CCO)c(=O)n3Cc3ccc(Cl)cc3)cc2)no1` [Compound I-1756]: 30 nM; for `COC(=O)C(=O)Cn1c(=O)[nH]/c(=N\c2ccc(OC(C)C)c(C)c2)n(Cc2ccc(Cl)cc2)c1=O` [Compound I-0996, 1-(4-chlorobenzyl)-6-(3-mehyl-4-isopropoxyphenylimino)-3-(2-methoxycarbonyl-2-oxoethyl)-1,3,5-triazinane-2,4-dion]: 32 nM; for `Cc1nc2ccc(/N=c3\[nH]c(=O)n(CC(C)(C)C(=O)O)c(=O)n3Cc3ccc(Cl)cc3)cc2s1` [Compound I-1576]: 8 nM. For the compound `COC(=O)CCCCn1c(=O)[nH]/c(=N\c2ccc(OC(C)C)c(Cl)c2)n(Cc2ccc(C)cc2)c1=O` [Compound I-1873], the IC50 came out at 2 nM.

As for `COC(=O)[C@@H](C)Cn1c(=O)[nH]/c(=N\c2ccc(Oc3ccccc3)cc2)n(Cc2ccc(C)cc2)c1=O` [Compound I-0990], the 50% inhibitory concentration (IC50) is 51 nM. Regarding `Cc1ccc(Cn2c(=O)n(CCC(=O)O)c(=O)[nH]/c2=N\c2ccc(OCCC(C)C)cc2)cc1` [Compound I-1070], the IC50 was 471 nM. Same read-out and setting: the same measure for `Cc1cc(/N=c2\[nH]c(=O)n(CC(CO)CO)c(=O)n2Cc2ccc(Cl)cc2)ccc1OC(C)C` [Compound I-1905]: 5 nM; for `COC(=O)CN1CCC(n2c(=O)[nH]/c(=N\c3ccc(OC(C)C)c(C)c3)n(Cc3ccc(Cl)cc3)c2=O)CC1` [Compound I-1639]: 14 nM.

The same test, now with this note: human P2X3 receptor, Test Example 1.
`CCn1c(=O)[nH]/c(=N\c2ccc(Oc3ccnc(C(=O)O)c3)c(F)c2)n(Cc2ccc(Cl)cc2)c1=O` [Compound I-2462]: the IC50 stood at 7 nM. As for `O=C(Cn1c(=O)[nH]/c(=N\c2ccc(Oc3ncns3)cc2)n(Cc2ccc(Cl)cc2)c1=O)NCCO` [Compound I-2674], the IC50 was found to be 5 nM. Turning to `CNC(=O)Cn1c(=O)[nH]/c(=N\c2ccc(Oc3cccnn3)cc2)n(Cc2ccc(Cl)cc2)c1=O` [Compound I-2690], the IC50 was 18 nM. Regarding `CNC(=O)[C@H](CCO)n1c(=O)[nH]/c(=N\c2ccc(OC(C)C)c(C)c2)n(Cc2ccc(Cl)cc2)c1=O` [Compound I-0869], the IC50 amounted to 574 nM.

In the case of `COCCn1c(=O)[nH]/c(=N\c2ccc(Oc3ccnc(C(=O)O)c3)cc2)n(Cc2ccc(Cl)cc2)c1=O` [Compound I-2552], the IC50 was determined as 5 nM. Consider `CCCOc1ccc(/N=c2\[nH]c(=O)n([C@H](C)CC(=O)OC)c(=O)n2Cc2ccc(C)cc2)cc1Cl` [Compound I-0877], for which the 50% inhibitory concentration (IC50) turned out to be 28 nM. Take `O=c1[nH]/c(=N\c2ccc(Oc3ccon3)cc2)n(Cc2ccc(Cl)cc2)c(=O)n1CCOC1CCCCO1` (stereo not drawn) [Compound I-2288]: the IC50 stood at 1 nM. `CCn1c(=O)[nH]/c(=N\c2ccc(Oc3cccc(CCC(=O)O)c3)cc2)n(Cc2ccc(Cl)cc2)c1=O` [Compound I-2232]: the concentration for half-maximal inhibition (IC50) is 13 nM. Regarding `CCn1c(=O)[nH]/c(=N\c2ccc(Oc3cc(C)nn3C)cc2)n(Cc2ccc(Cl)cc2)c1=O` [Compound I-2367], the IC50 came to 128 nM.
